{"source": "patent US20260191823A1", "about": "“PROPHYLACTIC OR THERAPEUTIC AGENT FOR ACUTE KIDNEY INJURY INDUCED BY ANTICANCER AGENT” (KYOWA HAKKO BIO CO., LTD., priority 2022, published 2026)", "key": {"[1]": {"tested_on": "cisplatin-induced acute kidney injury model animal", "test": "Cisplatin-induced acute kidney injury model animal", "assay_type": "in vivo", "details": "administration group"}, "[2]": {"tested_on": "Human proximal renal tubular cells (HK-2)", "test": "Suppression effect on cisplatin-induced cytotoxicity in renal tubular cells (cell counting kit-8)", "assay_type": "cell-based", "details": "for suppression of cell death over the tested concentrations: 0.01-100 μM test compound, cisplatin 20 μM for 24 h; for suppression of cell death over the tested concentrations / concentration showing a significant cell death-suppressing effect: FIG. 1; for concentration showing a significant cell death-suppressing effect: 0.5 h pre-treatment with test compound, then cisplatin 20 μM for 24 h", "protocol": "Human proximal renal tubular cells (HK-2) were seeded into a 96-well plate containing medium at a density of 5×10^3 cells/well. After confirming that the seeded cells had adhered to the plate, each test compound (GSSSG or Na2S4) was added so that the final concentration was 0 μM, 0.01 μM, 0.02 μM, 0.10 μM, 0.39 μM, 1.56 μM, 6.25 μM, 25 μM, or 100 μM, followed by standing at 37° C. for 0.5 hours. Each test compound was dissolved in PBS and then added.\nThe supernatant in each well was removed, and the cells were washed with PBS. […] Thereafter, cell viability was evaluated using cell counting kit-8 (Dojindo).\nThe composition of the medium used in Example 1 was as follows: • D-MEM/Ham's F-12 (FUJIFILM Wako Pure Chemical Corporation)+Penicillin-Streptomycin-Amphotericin B (FUJIFILM Wako Pure Chemical Corporation)+GlutaMAX (Thermo Fisher Scientific)+10% FBS."}, "[3]": {"tested_on": "cisplatin-induced renal injury", "details": "5.6 mg/kg intraperitoneal; cited from earlier work"}, "[4]": {"tested_on": "renal dysfunction caused by administration of cisplatin", "details": "300 mg/kg intraperitoneally; cited from earlier work"}}, "data": [{"smiles": "N[C@@H](CCC(=O)N[C@@H](CSSSC[C@H](NC(=O)CC[C@H](N)C(=O)O)C(=O)NCC(=O)O)C(=O)NCC(=O)O)C(=O)O", "note": "[GSSSG, glutathione trisulfide]", "values": [{"measurement": "elevation of blood urea nitrogen (BUN) level", "setting": "[1]", "result": "could be suppressed"}, {"measurement": "elevation of serum creatinine (CRE) level", "setting": "[1]", "result": "could be suppressed"}, {"measurement": "suppression of cell death over the tested concentrations", "setting": "[2]; HK-2 cells", "result": "tendency to suppress cell death in a concentration-dependent manner"}, {"measurement": "concentration showing a significant cell death-suppressing effect", "setting": "[2]; HK-2 cells", "result": 0.1, "unit": "µM"}, {"measurement": "cell death-suppressing effect relative to Na2S4", "setting": "[2]; HK-2 cells, cisplatin 20 μM, compares 0.1 μM with 100 μM", "result": "about 1000 times"}, {"measurement": "number of viable renal tubular cells", "setting": "[2]; test compound 0.1 μM, cisplatin added, fluorescence images, FIG. 2", "result": "notably higher"}]}, {"smiles": "[Na+].[Na+].[S-]SS[S-]", "note": "[Na2S4, reference compound]", "values": [{"measurement": "effect on cisplatin-induced renal injury", "setting": "[3]", "result": "effective"}, {"measurement": "suppression of cell death over the tested concentrations", "setting": "[2]; HK-2 cells", "result": "tendency to suppress cell death in a concentration-dependent manner"}, {"measurement": "concentration showing a significant cell death-suppressing effect", "setting": "[2]; HK-2 cells", "result": 100, "unit": "µM"}]}, {"smiles": "CC(C)OC(=O)CNC(=O)C(CS)NC(=O)CCC(N)C(=O)O.O=S(=O)(O)O", "note": "(centres unmarked) [glutathione monoisopropyl ester sulfate]", "values": [{"measurement": "cisplatin-induced body weight suppression", "setting": "[4]", "result": "alleviates"}, {"measurement": "cisplatin-induced elevated blood urea nitrogen", "setting": "[4]", "result": "alleviates"}]}]}
